Test systems include A549; COLO 205; DU-145; HCC 2998; HCT-15; HL-60; K562; KM12; MCF7; MDA-MB-435; MDA-N; MOLT-4; NCI-H23; OVCAR-8; SF-539; SN12C; T47D; TK-10; SR.
Holding throughout (assay): DTP human tumour cell line panel, 48 h

A word on the GI50: it is the concentration that inhibits growth by half.

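Interpolation was linear, between the two tested concentrations surrounding the appropriate level; five concentrations were tested over 48 hours in 96-well plates. The concentration for 50% growth inhibition is given as GI50.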 Activity calls are given as the source filed them. No stated cut-off is given here; in the data, active = GI50 up to about 1.1 µM and inactive = higher. Where a SMILES comes first, the peptide text is derived from it. [ ]: non-standard residue; d: D form. The star is where a group is joined. ξ: configuration not given here. ξD = NC(CC(=O)O)C(=O)O; Boc = CC(C)(C)OC(=O)*; Aib = CC(C)(N)C(=O)O; OBn = c1ccc(CO*)cc1

`O=C(O)/C(=C\c1ccccc1)Cc1ccccc1`: the GI50 with A549 was > 100 µM (inactive); with COLO 205, > 100 µM (inactive); in the assay on DU-145, > 100 µM (inactive); in the assay with HCC 2998 it was > 100 µM (inactive); in the assay with HCT-15, more than 100 µM; in the assay with HL-60, > 100 µM (inactive). Moreover, the GI50 in the assay on K562, in the assay with KM12, in the assay with MCF7, with MDA-MB-435, in the assay with MDA-N and in the assay with MOLT-4 was > 100 µM (inactive) each time. Further, the GI50 in the assay with NCI-H23 was > 100 µM (inactive); in the assay on OVCAR-8, > 100 µM (inactive); with SF-539, 83 µM (inactive); with SN12C it was > 100 µM (inactive); in the assay on T47D, > 100 µM (inactive); in the assay with TK-10 it was > 100 µM (inactive).

As to `CC(C)c1ccc(/C(C(=O)O)=C(\O)C(=O)O)cc1`, the GI50 is > 100 µM (inactive) with A549; > 100 µM (inactive) with COLO 205; > 100 µM (inactive) in the assay with DU-145; more than 100 µM in the assay on HCT-15; > 100 µM (inactive) in the assay on HL-60; > 100 µM (inactive) with K562. The GI50 in the assay with KM12, in the assay with MCF7, with MDA-MB-435, with MDA-N, with MOLT-4 and in the assay on NCI-H23 was > 100 µM (inactive) each time. For the same molecule, the GI50 in the assay with OVCAR-8, with SF-539, in the assay with SN12C, with SR, in the assay on T47D and in the assay with TK-10 was > 100 µM (inactive) in each case.

Take `Cc1ccc(C)n1-n1c(Cc2ccc(Cl)cc2)n[nH]c1=O`: the GI50 is 69 µM (inactive) in the assay with A549; 83.6 µM (inactive) with COLO 205; > 100 µM (inactive) in the assay on DU-145; more than 100 µM with HCT-15; 41.1 µM (inactive) with K562; 46 µM (inactive) with KM12. The GI50 is 90.4 µM (inactive) with MCF7; > 100 µM (inactive) in the assay with MDA-MB-435; > 100 µM (inactive) in the assay with MDA-N; 29 µM (inactive) in the assay with MOLT-4; 77.4 µM (inactive) with OVCAR-8; > 100 µM (inactive) in the assay on SN12C. For the same molecule, the GI50 with SR was 33.2 µM (inactive); with T47D, 39.9 µM (inactive); in the assay with TK-10, > 100 µM (inactive).

In the case of `CCOC(=O)/C=C(/C(=O)OCC)n1c(=O)c(C)cn(C2CC(N=[N+]=[N-])C(CO)O2)c1=O` (stereo unspecified), the GI50 in the assay with A549 was 33.9 µM (inactive); with COLO 205, 14.5 µM (inactive); with DU-145, 43.5 µM (inactive); in the assay on HCC 2998 it was 16.4 µM (inactive); in the assay on HCT-15, 29.7 µM; with HL-60, 2.31 µM (inactive). Besides, the GI50 in the assay on K562 was 1.86 µM (inactive); in the assay on KM12 it was 50.1 µM (inactive); in the assay with MCF7, 19.8 µM (inactive); in the assay on MDA-MB-435, 29.6 µM (inactive); in the assay with MDA-N, 43 µM (inactive); in the assay on MOLT-4, < 0.01 µM (active). Besides, the GI50 is 34 µM (inactive) in the assay on NCI-H23; 28.9 µM (inactive) in the assay on OVCAR-8; 22.1 µM (inactive) in the assay with SF-539; 37.2 µM (inactive) with SN12C; 27.2 µM (inactive) with T47D; 37.2 µM (inactive) in the assay on TK-10.

Regarding `CCOC(=O)c1ccc(N(C)Cc2cnc3nc(N)nc(N)c3n2)cc1`, the GI50 in the assay on COLO 205 was > 100 µM (inactive); in the assay with DU-145, 15.8 µM (inactive); in the assay on HCT-15, 4.85 µM; in the assay on HL-60, 80.4 µM (inactive); in the assay with K562, 2.58 µM (inactive); in the assay on KM12 it was 15.8 µM (inactive). For the same molecule, the GI50 is 12.6 µM (inactive) in the assay on MCF7; 8.83 µM (inactive) with MDA-MB-435; 18.5 µM (inactive) in the assay with MDA-N; 7.91 µM (inactive) with MOLT-4; 9.04 µM (inactive) in the assay on NCI-H23; 7.64 µM (inactive) with OVCAR-8. Besides, the GI50 in the assay on SF-539 is 8.13 µM (inactive); in the assay with SN12C, 40.4 µM (inactive); in the assay with SR, 6.81 µM (inactive); in the assay with T47D, 26.9 µM (inactive); in the assay on TK-10, 13.8 µM (inactive).

In the case of `O=C(CCc1ccccc1)On1c(-c2ccccc2)nc2ccccc2c1=S`, the GI50 in the assay with A549 was 3.65 µM (inactive); with COLO 205, 4.28 µM (inactive); in the assay on DU-145, 9.71 µM (inactive); in the assay on HCC 2998, 4.52 µM (inactive); in the assay with HCT-15, 2.32 µM; in the assay on HL-60, 3.05 µM (inactive). In addition, the GI50 was 4.6 µM (inactive) in the assay with K562; 3.87 µM (inactive) in the assay on KM12; 4.54 µM (inactive) with MCF7; 8.18 µM (inactive) with MDA-MB-435; 12.9 µM (inactive) in the assay on MDA-N; 0.455 µM (active) with MOLT-4. The GI50 with NCI-H23 was 4.3 µM (inactive); in the assay with OVCAR-8, 4.44 µM (inactive); in the assay with SF-539, 3.92 µM (inactive); with SN12C it was 11.9 µM (inactive); in the assay on T47D it was 6.79 µM (inactive); in the assay with TK-10, 18.9 µM (inactive).

In the case of `COc1ccc(/N=N/C(=O)NC(CC(C)C)C(=O)NC(Cc2ccccc2)C(=O)O)cc1` (stereo unspecified), the GI50 with A549 is 2.12 µM (inactive); in the assay on COLO 205 it was 1.71 µM (inactive); with DU-145, 0.634 µM (active); with HCC 2998, 2.63 µM (inactive); with HCT-15, 0.378 µM; in the assay on HL-60, 0.685 µM (active). Further, the 50% growth inhibitory concentration (GI50) with K562 is 0.287 µM (active); with KM12 it was 11.9 µM (inactive); in the assay on MCF7 it was 18.3 µM (inactive); in the assay on MDA-MB-435 it was 0.705 µM (active); in the assay with MDA-N, 0.7 µM (active); in the assay with MOLT-4, 0.706 µM (active). Besides, the GI50 was 16.3 µM (inactive) with NCI-H23; > 100 µM (inactive) with OVCAR-8; 0.31 µM (active) in the assay with SF-539; > 100 µM (inactive) in the assay with SN12C; 1.06 µM (active) in the assay on T47D; > 100 µM (inactive) with TK-10.

For the molecule `C=C1CC[C@@]2(C)[C@@H]([C@@H]1C)[C@H]1CC[C@@H]3[C@@]4(C)CC[C@H](O)C(C)(C)[C@@H]4CC[C@@]3(C)[C@]1(C)C[C@@H]2O`, the GI50 was 2.05 µM (inactive) with A549; 4.23 µM (inactive) in the assay on COLO 205; 4.57 µM (inactive) in the assay on DU-145; 3.24 µM with HCT-15; 1.53 µM (inactive) in the assay with HL-60; 3.65 µM (inactive) in the assay with KM12. In addition, the GI50 with MCF7 was 2.13 µM (inactive); in the assay on MDA-MB-435, 4.22 µM (inactive); with MDA-N, 8.53 µM (inactive); with MOLT-4 it was 3.22 µM (inactive); in the assay with NCI-H23, 2.48 µM (inactive); with OVCAR-8, 1.85 µM (inactive). Further, the GI50 was 2.45 µM (inactive) with SF-539; 2.52 µM (inactive) with SN12C; > 100 µM (inactive) in the assay on SR; 2.55 µM (inactive) in the assay on T47D; 5.62 µM (inactive) in the assay on TK-10.

Regarding `O=C1Nc2ccccc2C(=O)/C1=C/NC(=S)NCc1ccccc1`, the GI50 in the assay on A549, in the assay on COLO 205, in the assay on DU-145, with HL-60, with KM12 and with MCF7 was > 100 µM (inactive) each time. Further, the GI50 with MDA-MB-435 was 98.2 µM (inactive); with MDA-N it was > 100 µM (inactive); with MOLT-4 it was > 100 µM (inactive); with NCI-H23, > 100 µM (inactive); with OVCAR-8 it was > 100 µM (inactive); in the assay with SF-539, > 100 µM (inactive). The GI50 in the assay on SN12C, in the assay with T47D and in the assay with TK-10 was > 100 µM (inactive) throughout.

In the case of `N=C(N)NCCCC(=O)O`, the GI50 in the assay with A549 was > 100 µM (inactive); in the assay on COLO 205, > 100 µM (inactive); in the assay with DU-145, > 100 µM (inactive); with HCT-15, more than 100 µM; in the assay with HL-60, > 100 µM (inactive); in the assay with K562, > 100 µM (inactive). Besides, the GI50 in the assay with KM12, with MCF7, in the assay on MDA-MB-435, with MDA-N, in the assay on MOLT-4 and in the assay on NCI-H23 was > 100 µM (inactive) throughout. Further, the GI50 with OVCAR-8, in the assay on SF-539, with SN12C, with SR, with T47D and with TK-10 was > 100 µM (inactive) each time.

Turning to `CC1(C)CC(=O)C(=CNc2nc(-c3cccc([N+](=O)[O-])c3)cs2)C(=O)C1`, the GI50 is 66.1 µM (inactive) with A549; 14.8 µM (inactive) with COLO 205; 29.4 µM (inactive) with DU-145; 15.7 µM (inactive) with HCC 2998; 11.6 µM with HCT-15; 7.52 µM (inactive) in the assay on HL-60. The GI50 was 16.6 µM (inactive) with K562; 16.6 µM (inactive) with KM12; 15.8 µM (inactive) in the assay with MCF7; 21.4 µM (inactive) in the assay on MDA-MB-435; 17.8 µM (inactive) in the assay with MDA-N; 10.5 µM (inactive) with MOLT-4. For the same molecule, the GI50 in the assay on NCI-H23 is 18.1 µM (inactive); in the assay on OVCAR-8 it was 23.7 µM (inactive); with SF-539, 20.8 µM (inactive); with SN12C, 18.1 µM (inactive); in the assay with T47D, 18.1 µM (inactive); in the assay with TK-10, 35.8 µM (inactive).

In the case of `CC(C)(C)OC(=O)NC(CC(=O)OCc1ccccc1)C(=O)NC(C)(C)C(N)=O` (stereo unspecified) (Boc-[ξD](OBn)-[Aib]-NH2), the GI50 with A549 is > 100 µM (inactive); in the assay with COLO 205, > 100 µM (inactive); with DU-145, > 100 µM (inactive); in the assay with HCT-15, more than 100 µM; in the assay with K562 it was > 100 µM (inactive); with KM12, > 100 µM (inactive). In addition, the GI50 in the assay with MCF7, in the assay with MDA-MB-435, in the assay on MDA-N, in the assay with MOLT-4, in the assay with NCI-H23 and with OVCAR-8 was > 100 µM (inactive) each time. In addition, the GI50 in the assay with SF-539, in the assay on SN12C, with T47D and in the assay with TK-10 was > 100 µM (inactive) throughout.

For the origin of these results see ChEMBL document CHEMBL1201862, “PubChem BioAssay data set” (2004).
